Measured values published in the supplement of paper PMC10307832.

Columns and labels:
Experiment in all cases: relative viability (nuclei count vs DMSO), 5 days (fraction); higher = more cells survive
[1] = compound: COC1=CC=C(C=C1)CN2C=CC3=C2C=C(C=C3)C(=O)NO
Procedure, shortened: (§1)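 Viability was defined as treated-well nuclei divided by vehicle-well nuclei, with the median taken over replicate plates. Cells from lung cancer lines sat overnight at 37 °C in 1536-well plates, received five √10-spaced library-drug doses by pinning on vehicle-anchored plates, and grew 5 days without medium change before one-step fixation, permeabilisation and Hoechst staining, 4× imaging and MetaXpress nuclear counts. Only plates with control CV under 25% and at least one doubling were kept.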

Veliparib = compound: C[C@]1(c2nc3c(C(N)=O)cccc3[nH]2)CCCN1 [Veliparib]
Procedure, shortened: as §1

[2] = compound: COC1=CC=C(C=C1)CN2C=CC3=C2C=C(C=C3)C(=O)NO + CC1(C)CCC(c2ccc(Cl)cc2)=C(CN2CCN(c3ccc(C(=O)NS(=O)(=O)c4ccc(N[C@H](CCN5CCOCC5)CSc5ccccc5)c(S(=O)(=O)C(F)(F)F)c4)cc3)CC2)C1 [Navitoclax] (partner 0.5 µM)
Procedure, shortened: (§2)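 Relative viability divides the nuclei count in treated wells by that in vehicle wells. Lung cancer cell lines were seeded in 1536-well plates, dosed by pin tool the next day, and fixed and stained after 5 days in one step with final 0.05% Triton X-100, 1% formaldehyde and 1 ug/ml Hoechst. Dosing was a single drug or a fixed anchor-drug dose plus five library-drug doses (not always all listed) in √10 steps, and values are medians of duplicate plates imaged at 4×.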

[3] = compound: COC1=CC=C(C=C1)CN2C=CC3=C2C=C(C=C3)C(=O)NO + COc1cc2c(Oc3ccc(NC(=O)C4(C(=O)Nc5ccc(F)cc5)CC4)cc3F)ccnc2cc1OCCCN1CCOCC1 [Foretinib] (partner 0.25 µM)
Procedure, shortened: as §2

Row | Cell Line | relative viability ([1]; 0.08 µM) | relative viability ([1]; 0.253 µM) | relative viability ([1]; 0.8 µM) | relative viability ([1]; 2.53 µM) | relative viability ([1]; 8 µM) | relative viability (Veliparib; 0.02 µM) | relative viability (Veliparib; 0.06325 µM) | relative viability (Veliparib; 0.2 µM) | relative viability (Veliparib; 0.6325 µM) | relative viability (Veliparib; 2 µM) | relative viability ([2]; first compound 0.08 µM) | relative viability ([2]; first compound 0.253 µM) | relative viability ([2]; first compound 0.8 µM) | relative viability ([2]; first compound 2.53 µM) | relative viability ([2]; first compound 8 µM) | relative viability ([3]; first compound 0.08 µM) | relative viability ([3]; first compound 0.253 µM) | relative viability ([3]; first compound 0.8 µM) | relative viability ([3]; first compound 2.53 µM) | relative viability ([3]; first compound 8 µM)
1 | NCI-H1437 | 0.912 | 0.978 | 1.05 | 1.06 | 1.05 | 0.815 | 0.958 | 0.971 | 0.972 | 0.963 | 0.898 | 1.08 | 1.1 | 1.15 | 1.05 | 1.05 | 1.21 | 1.22 | 1.34 | 1.27
2 | NCI-H322M |  | 0.948 | 1.06 | 0.925 | 0.931 |  | 0.872 | 1.07 | 0.963 | 0.903 |  | 1.1 | 1.13 | 1.18 | 1.24 |  | 1.03 | 1.06 | 0.984 | 0.882
3 | COR-L23 | 0.874 | 0.992 | 1 | 1.01 | 0.933 | 0.998 | 0.872 | 0.924 | 0.952 | 1.03 | 0.77 | 0.945 | 1.04 | 1.11 | 1.01 | 0.741 | 0.992 | 0.985 | 0.99 | 0.945
4 | NCI-H2009 | 0.926 | 0.978 | 1.01 | 0.993 | 0.913 | 0.918 | 0.922 | 0.972 | 0.931 | 1.1 | 1.23 | 1.19 | 1.13 | 1.18 | 1.13 | 0.931 | 1.3 | 1.17 | 1.27 | 1.24
5 | NCI-H1355 | 0.814 | 0.996 | 0.987 | 0.995 | 0.874 |  | 0.835 | 1.03 | 0.943 | 0.944 | 0.781 | 1 | 0.94 | 1.11 | 0.873 |  | 0.959 | 0.928 | 1.02 | 0.962
6 | NCI-H838 |  | 1.01 | 0.964 | 0.98 | 0.871 | 1.05 | 0.909 | 0.974 | 0.9 | 1.02 |  | 1.22 | 1.17 | 1.22 | 1.09 |  | 1.07 | 1 | 0.995 | 0.982
7 | EPLC-272H | 0.753 | 0.871 | 1 | 0.974 | 0.766 |  | 0.855 | 1.02 | 1.01 | 0.938 | 0.7 | 1.06 | 1.13 | 1.05 | 1.18 | 0.293 |  | 0.653 | 0.704 | 0.662
8 | EBC-1 | 0.71 | 0.931 | 1.04 | 0.987 | 0.923 | 1.05 | 0.93 | 0.983 | 0.915 | 1 | 0.399 | 0.406 | 0.378 | 0.304 | 0.313 | 0.0855 | 0.0996 | 0.0919 | 0.102 | 0.113
9 | NCI-H23 | 0.776 | 1.06 | 1.09 | 0.968 | 0.721 | 0.89 | 0.77 | 0.948 | 0.951 | 0.96 | 0.675 | 0.689 | 0.896 | 0.985 | 0.728 | 0.823 | 1.17 | 0.981 | 0.955 | 0.853
10 | EMC-BAC-2 | 0.88 |  | 1.08 | 0.979 | 0.873 | 1.01 | 0.786 | 1.09 | 1.11 | 0.965 | 0.993 | 1.21 | 1.16 | 1.21 | 1.15 | 0.788 | 1.03 | 0.98 | 0.977 | 0.922
11 | NCI-H2405 | 0.908 | 0.934 | 1 | 1.06 | 0.913 | 0.973 | 0.89 | 1.01 | 1 | 0.691 | 0.534 | 0.82 | 0.764 | 0.775 | 0.66 | 1.01 | 1.06 | 1.07 | 1.09 | 1.02
12 | IA-LM | 0.91 | 0.949 | 1.03 | 1.08 | 0.868 | 0.918 | 0.831 | 0.952 | 0.896 | 0.886 | 0.675 | 0.882 | 1.02 | 0.851 | 0.695 | 0.997 | 1.33 | 1.08 | 1.2 | 1.06
13 | HCC-15 | 0.883 | 0.965 | 1.11 | 1.01 | 0.935 | 0.89 | 0.952 | 1.04 | 0.985 | 1.05 | 0.605 | 0.726 | 0.717 | 0.741 | 0.675 | 0.642 | 1.02 | 1 | 1.03 | 1.01
14 | PC-14 | 0.84 | 0.939 | 0.998 | 1.01 | 0.904 | 0.805 | 0.936 | 0.974 | 0.955 | 0.993 | 0.869 | 1.04 | 1.01 | 1.14 | 1.02 | 0.701 | 0.917 | 0.991 | 1.04 | 0.996
15 | NCI-H1944 |  | 0.986 | 0.987 | 0.947 | 0.955 | 0.878 | 0.961 | 0.765 | 0.789 | 0.894 |  | 0.998 | 1.02 | 1.08 | 1.08 |  | 0.874 | 0.853 | 0.887 | 0.912
16 | SK-MES-1 | 1.07 | 1.02 | 0.988 | 1.03 | 0.997 | 1.03 | 0.939 | 0.977 | 0.961 | 1.03 | 1.2 | 1.3 | 1.26 | 1.2 | 1.02 | 1.17 | 0.929 | 0.927 | 0.98 | 0.927
17 | H3255 | 0.992 | 0.957 | 0.948 | 0.968 | 0.842 | 0.919 | 0.92 | 0.962 | 0.951 | 0.992 | 0.574 | 0.501 | 0.503 | 0.541 | 0.46 | 0.92 | 0.702 | 0.821 | 0.89 | 0.398
